Reference: patent publication US20070020193A1, “Dronabinol compositions and methods for using same” (priority 2005, published 2007)
“And” between values parts separate entries of the source, which are not always exact repeats. Equal values may be shown once. “Also recorded” adds a separate entry of the source.

Key:
healthy subjects [1] = assay: Example 1: subjective drug ratings and ARCI; format: in vivo, human
Text: (§1) The subject responded to each of three questions on a scale of 0 to 100 with 0 meaning no effect/not at all and 100 meaning maximum/very much:
How much of a drug effect or high do you feel?
How much do you like the drug?
How much do you dislike the drug?
(§2) The ARCI is a true/false questionnaire developed to specifically measure the subjective effects of drugs which have diverse pharmacological actions. The […] (PCAG), morphine-benzedrine, and lysergic acid diethylamide subgroup scales were used to assess sedation, euphoria, and dysphoria. Questions from the marijuana subscale were also included.
Subjective drug ratings and cognitive measurement scores were presented as absolute values only with separate tables summarizing gender difference and age differences.

healthy subjects [2] = assay: Example 2: heart rate (telemetry / vital signs); format: in vivo, human; conditions: for placebo-corrected mean heart rate: 1.2 mg; for Mean increase of heart rate above baseline: last day of dosing
Text: For Examples 1 and 2: Heart rate was obtained from the blood pressure recordings or using telemetry.
Absolute values of heart rate and conjunctive congestion scores were used to calculate changes from baseline.
Changes from baseline in conjunctiva congestion and heart rate were compared for all time-points measured, and summarized using descriptive statistics. Subjective ratings were individually tabulated and sorted by treatment group, subject number, and time, and summarized using descriptive statistics. Separate tables were provided to summarize differences between males and females if applicable. Pharmacodynamic assessments were compared with delta-9 THC and 11-OH-THC blood concentrations and summarized using descriptive statistics.

healthy subjects [3] = test system: healthy subjects; design: species or system human; conditions: in vivo
healthy subjects [4] = assay: Example 2: subjective drug rating and ARCI-49; format: in vivo, human
Text: The data for Group I and Group II were pooled and submitted to a mixed effects general linear model analysis. Two sets of analyses were done. The first was for the pre-drug conditions. The fixed effect of day and the fixed effect of condition were non-significant for all of the five scale scores, indicating similarity of pre-drug baseline score. A second analysis compared condition, the first dosing day, the last dosing day, the four visits including pre-drug, and the subjects in the analysis of variance.
as §1, §2

healthy subjects [5] = assay: Example 2: safety, adverse events; format: in vivo, human; conditions: for events reported among subjects treated with active drug: all six subjects; for events considered probably or possibly related to study drug: all six subjects on active drug
Method: (§3) Adverse events were recorded based on original descriptions from subject responses to queries. Complete medical histories and physical examinations were conducted. Vital signs were monitored, ECGs were recorded along with pulmonary function tests and laboratory examinations.
Treatment-emergent adverse events (TEAEs), defined as any event that begins or worsens after treatment with study medication, were summarized by MedDRA system organ class (SOC) for each treatment group. The number and percentage of subjects with TEAEs was tabulated for each treatment and with respect to maximum severity and relationship to study medication.

healthy subjects [6] = assay: Example 2: 12-lead ECG and telemetric cardiac monitoring; format: in vivo, human; conditions: for heart rate, mean value (ECG) / heart rate, mean increase above baseline / heart rate, mean increase above pre-dose value on Day 1: Day 1, 20 minutes after dosing; for time for heart rate to return to baseline after dosing: Day 1
Method: as §3
Listings of values for each subject were presented with abnormal or out of range values for vital signs, laboratory assays, ECGs, pulmonary function tests, and physical examinations. Descriptive statistics (n, mean, standard deviation (SD), minimum, median, maximum) for all clinical laboratory safety parameters, ECGs, pulmonary function tests, and vital signs were provided. ECGs and physical examinations were to be summarized in shift tables to show changes from baseline between normal and abnormal findings.

[7] = after single dosing, both dose levels

Structure (SMILES): CCCCCc1cc(O)c2c(c1)OC(C)(C)[C@@H]1CCC(C)=C[C@@H]21 [delta-9-THC, delta-9-tetrahydrocannabinol]
- dose with maximum 'disliking' (healthy subjects [1]; Group I): 2.4 mg
- dose with maximum psychoactivity ('feel the drug' scores) and highest mean 'liking' scores (healthy subjects [1]; Group I): 0.3 mg
- dose with maximum 'disliking' scores and maximum 'feel the drug' scores (healthy subjects [1]; Group II): 7.2 mg
- dose with maximum 'liking' scores (healthy subjects [1]; Group II): 3.6 mg
- subjective drug ratings, three scales (healthy subjects [1]; Group III, 3.6 mg): difference between placebo and 3.6 mg
- ARCI MBG, LSD and Amphetamine Scales (healthy subjects [1]; in vivo): No significant results
- placebo-corrected mean heart rate (healthy subjects [2]; Day 1): limited and short-lasting increase
- placebo-corrected mean heart rate (healthy subjects [2]; Day 12): no increase
- duration of placebo-corrected heart rate increase post-dose (healthy subjects [2]; 3.6 mg, Day 1): at least 4 hours
- placebo-corrected mean heart rate, maximum increase (healthy subjects [2]; 3.6 mg, after 19 days of dosing, by 10 minutes post-dose): approximately 10 bpm
- Mean increase of heart rate above baseline (healthy subjects [2]; Group I (1.2 mg), at 0.5 hours after dosing): ≤ 12 bpm
- Mean increase of heart rate above baseline (healthy subjects [2]; Group II (3.6 mg), at 5 minutes after dosing): ≤ 18 bpm
- heart rate (summary) (healthy subjects [2]; after single dose inhaled administration): increased in a dose-dependent fashion
- duration of effect on heart rate (healthy subjects [2]; [7]): 2 to 4 h
- time of maximum effect on heart rate (healthy subjects [2]; [7]): 2 to 5 min
- Choice Reaction Time against placebo (healthy subjects [3]): significant decrement; also recorded: significant benefit
- Delayed Word Recall Words Correctly Recalled, primary analysis (healthy subjects [3]): no significant effect of dose
- Delayed Word Recognition Sensitivity Index, primary analysis (healthy subjects [3]): no significant effect of dose
- Delayed Word Recognition Speed against placebo (healthy subjects [3]): benefits
- Digit Vigilance Speed, primary analysis (healthy subjects [3]): no significant effect of dose
- Digit Vigilance Targets Detected, baseline score (healthy subjects [3]): 95.6% and 96.7% and 97.4% and 98.5%
- Immediate Word Recall Words Correctly Recalled, primary analysis (healthy subjects [3]): no significant effect of dose
- Numeric Working Memory Sensitivity Index, primary analysis (healthy subjects [3]): no significant effect of dose
- Numeric Working Memory Speed, primary analysis (healthy subjects [3]): no significant effect of dose
- Picture Recognition Sensitivity Index, primary analysis (healthy subjects [3]): no significant effect of dose
- Picture Recognition Speed, primary analysis (healthy subjects [3]): no dose*time interaction
- Self-rated Alertness, comparisons against placebo (healthy subjects [3]): no decrements
- Self-rated Calmness, primary analysis (healthy subjects [3]): no significant effect of dose
- Self-rated Contentment, comparisons (healthy subjects [3]): no support for differences between the doses on either day
- Simple Reaction Time, comparisons (healthy subjects [3]): did not show any significant differences
- Spatial Working Memory Sensitivity Index against placebo (healthy subjects [3]): significant decrement
- Spatial Working Memory Sensitivity Index, primary analysis (healthy subjects [3]): significant main effect of dose
- Spatial Working Memory Speed, primary analysis (healthy subjects [3]): no significant effect of dose
- Tracking Average Distance from Target, primary analysis (healthy subjects [3]): no significant effect of dose
- cognitive function effects (summary) (healthy subjects [3]): Minimal cognitive function effects
- 'feel the drug' and 'liking' scores (healthy subjects [4]; 1.2 mg, Day 1): slightly larger than those who received placebo
- 'disliking' scores (healthy subjects [4]; 1.2 mg, Day 12): approximately the same or slightly higher
- 'feel the drug' and 'liking' scores (healthy subjects [4]; 1.2 mg, Day 12): diminished
- ARCI Morphine Benzedrine Group (MBG) scale (healthy subjects [4]; 3.6 mg, 1 hour post-dose): some MBG effect
- 'feel the drug', 'liking' and 'disliking' scores versus placebo (healthy subjects [4]; 3.6 mg, Day 1): significantly larger
- subjective drug rating scores (healthy subjects [4]; 3.6 mg, Day 19): still much larger than the placebo scores
- ARCI Amphetamine Scale (AS) (healthy subjects [4]; Groups I and II pooled): no significant effects for condition
- ARCI Benzedrine Group scale, interaction terms (healthy subjects [4]; Groups I and II pooled): significant for the visit and the condition by visit interaction terms
- ARCI LSD scale (healthy subjects [4]; Groups I and II pooled): no significance for condition, day, visit, or any of the interaction terms
- ARCI PCAG scale, visit and condition times visit interaction (healthy subjects [4]; Groups I and II pooled, p less than 0.001): highly significant
- subjects reporting cough (healthy subjects [5]; 1.2 mg, Group I, all six): 100%
- subjects with increased liver function tests (summary) (healthy subjects [5]; 3.6 mg for two weeks): three out of nine subjects
- subjects reporting cough (healthy subjects [5]; 3.6 mg, Group II, five out of six): 83.3%
- subjects reporting euphoric mood (healthy subjects [5]; Group 1, one subject): 16.7%
- most frequently reported TEAEs (healthy subjects [5]; Group I (1.2 mg dose level)): cough and somnolence
- TEAEs Probable/Possible, E = number of adverse events (healthy subjects [5]; Group I Active (1.2 mg)): 13
- TEAEs Probable/Possible, N = number of subjects (healthy subjects [5]; Group I Active (1.2 mg)): 6
- TEAEs Unlikely/Unrelated, E = number of adverse events (healthy subjects [5]; Group I Active (1.2 mg)): 7
- TEAEs Unlikely/Unrelated, N = number of subjects (healthy subjects [5]; Group I Active (1.2 mg)): 3
- Any related TEAE, n (x %) subjects (healthy subjects [5]; Group I, 1.2 mg): 6 (100%)
- Any related TEAE, number AEs (healthy subjects [5]; Group I, 1.2 mg): 13
- Subjects with at least one AE, n (x %) (healthy subjects [5]; Group I, 1.2 mg): 6 (100%)
- Subjects with at least one AE, number AEs (healthy subjects [5]; Group I, 1.2 mg): 20
- events reported among subjects treated with active drug (healthy subjects [5]; Group I): 27 events
- events considered probably or possibly related to study drug (healthy subjects [5]; Group I): 13 events
- most frequently reported TEAEs (healthy subjects [5]; Group II (3.6 mg dose level)): cough, headache, and euphoric mood
- TEAEs Probable/Possible, E = number of adverse events (healthy subjects [5]; Group II Active (3.6 mg)): 17
- TEAEs Probable/Possible, N = number of subjects (healthy subjects [5]; Group II Active (3.6 mg)): 6
- TEAEs Unlikely/Unrelated, E = number of adverse events (healthy subjects [5]; Group II Active (3.6 mg)): 9
- TEAEs Unlikely/Unrelated, N = number of subjects (healthy subjects [5]; Group II Active (3.6 mg)): 3
- Any related TEAE, n (x %) subjects (healthy subjects [5]; Group II, 3.6 mg): 6 (100%)
- Any related TEAE, number AEs (healthy subjects [5]; Group II, 3.6 mg): 17
- Subjects with at least one AE, n (x %) (healthy subjects [5]; Group II, 3.6 mg): 6 (100%)
- Subjects with at least one AE, number AEs (healthy subjects [5]; Group II, 3.6 mg): 27
- subjects with liver enzymes elevated at follow-up (healthy subjects [5]; Group II, 3.6 mg): three subjects
- events reported among subjects treated with active drug (healthy subjects [5]; Group II): 19 events
- events considered probably or possibly related to study drug (healthy subjects [5]; Group II): 17 events
- subjects reporting euphoric mood (healthy subjects [5]; Group III (so in the source), three subjects): 50.0%
- duration of intermittent cough (healthy subjects [5]; active treatment, Group I): between four and nine days
- duration of intermittent cough (healthy subjects [5]; active treatment, Group II): between six and 18 days
- subjects reporting somnolence (healthy subjects [5]; active treatment, two subjects in each group): 33.3%
- overall safety and tolerability (healthy subjects [5]; single and multiple dosing with 1.2 and 3.6 mg, pulmonary inhaled): safe and well-tolerated
- vital signs, ECG, physical examination, telemetric monitoring and pulmonary function tests (healthy subjects [5]; summary): No dose-related trends or clinically significant changes
- deaths or serious adverse events (healthy subjects [5]; whole study): No deaths or serious adverse events
- intensity of TEAEs (healthy subjects [5]; whole study): mild intensity
- serious or severe AEs, AEs leading to premature termination (healthy subjects [5]; whole study): no serious or severe AEs
- heart rate, mean value (ECG) (healthy subjects [6]; Group I (1.2 mg)): 67 bpm
- time for heart rate to return to baseline after dosing (healthy subjects [6]; Group I): ≤ 40 min
- heart rate, mean increase above baseline (healthy subjects [6]; Group I): 4 bpm
- heart rate, mean increase above pre-dose value on Day 1 (healthy subjects [6]; Group I): 13 bpm
- heart rate, mean value (ECG) (healthy subjects [6]; Group II (3.6 mg)): 81 bpm
- time for heart rate to return to baseline after dosing (healthy subjects [6]; Group II): ≤ 240 min
- heart rate, mean increase above baseline (healthy subjects [6]; Group II): 14 bpm
- heart rate, mean increase above pre-dose value on Day 1 (healthy subjects [6]; Group II): 21 bpm
- time of return of QTc towards baseline after dosing (healthy subjects [6]; Group II, first dose): ≤ 1 h
- Individual QTc values (healthy subjects [6]; each assessment time point): less than 450 msec
- QTc individual values (healthy subjects [6]; each assessment time point): < 422 ms
- QTc mean values (healthy subjects [6]; each assessment time point): < 395 ms
- QTc-intervals using Fridericia's correction (healthy subjects [6]; in vivo): no apparent effect
- telemetric cardiac monitoring (healthy subjects [6]; in vivo): no clinically significant abnormalities
- ECG parameters (healthy subjects [6]; single and multiple inhalational dosing): no clinically significant abnormalities or trends
